Experimental data as given in the NIST ThermoML archive (doi:10.1016/j.jct.2015.05.027).
± gives the expanded uncertainty stated by the source.

Settings: Liquid, Vibrating tube method

Q: What does the source list for CCC(C)O (centres undefined) [butan-2-ol]?
A: mass density (293.15 K, 100 kPa): 806.7 ± 0.7 kg/m3; mass density (293.15 K, 1000 kPa): 807.4 ± 0.7 kg/m3; mass density (293.15 K, 5000 kPa): 810.4 ± 0.7 kg/m3; mass density (293.15 K, 10000 kPa): 814 ± 0.7 kg/m3; mass density (293.15 K, 15000 kPa): 817.4 ± 0.7 kg/m3; mass density (293.15 K, 20000 kPa): 820.7 ± 0.7 kg/m3; mass density (293.15 K, 25000 kPa): 823.9 ± 0.8 kg/m3; mass density (293.15 K, 30000 kPa): 826.9 ± 0.8 kg/m3; mass density (293.15 K, 35000 kPa): 829.9 ± 0.8 kg/m3; mass density (293.15 K, 40000 kPa): 832.7 ± 0.8 kg/m3; mass density (293.15 K, 45000 kPa): 835.4 ± 0.8 kg/m3; mass density (293.15 K, 50000 kPa): 838.1 ± 0.8 kg/m3; mass density (293.15 K, 55000 kPa): 840.6 ± 0.8 kg/m3; mass density (293.15 K, 60000 kPa): 843.2 ± 0.8 kg/m3; mass density (293.15 K, 65000 kPa): 845.7 ± 0.8 kg/m3; mass density (293.15 K, 70000 kPa): 848 ± 0.9 kg/m3; mass density (293.15 K, 80000 kPa): 852.6 ± 0.9 kg/m3; mass density (293.15 K, 90000 kPa): 857.1 ± 0.9 kg/m3; mass density (293.15 K, 100000 kPa): 861.2 ± 0.9 kg/m3; mass density (293.15 K, 110000 kPa): 865.3 ± 0.9 kg/m3; mass density (293.15 K, 120000 kPa): 869.2 ± 1 kg/m3; mass density (293.15 K, 130000 kPa): 873 ± 1 kg/m3; mass density (293.15 K, 140000 kPa): 876.6 ± 1 kg/m3; mass density (298.15 K, 100 kPa): 802.6 ± 0.7 kg/m3; mass density (298.15 K, 1000 kPa): 803.3 ± 0.7 kg/m3; mass density (298.15 K, 5000 kPa): 806.4 ± 0.7 kg/m3; mass density (298.15 K, 10000 kPa): 810.1 ± 0.7 kg/m3; mass density (298.15 K, 15000 kPa): 813.6 ± 0.7 kg/m3; mass density (298.15 K, 20000 kPa): 817 ± 0.7 kg/m3; mass density (298.15 K, 25000 kPa): 820.2 ± 0.8 kg/m3; mass density (298.15 K, 30000 kPa): 823.4 ± 0.8 kg/m3; mass density (298.15 K, 35000 kPa): 826.3 ± 0.8 kg/m3; mass density (298.15 K, 40000 kPa): 829.2 ± 0.8 kg/m3; mass density (298.15 K, 45000 kPa): 832 ± 0.8 kg/m3; mass density (298.15 K, 50000 kPa): 834.7 ± 0.8 kg/m3; mass density (298.15 K, 55000 kPa): 837.4 ± 0.8 kg/m3; mass density (298.15 K, 60000 kPa): 839.9 ± 0.8 kg/m3; mass density (298.15 K, 65000 kPa): 842.4 ± 0.8 kg/m3; mass density (298.15 K, 70000 kPa): 844.8 ± 0.9 kg/m3; mass density (298.15 K, 80000 kPa): 849.5 ± 0.9 kg/m3; mass density (298.15 K, 90000 kPa): 854 ± 0.9 kg/m3; mass density (298.15 K, 100000 kPa): 858.2 ± 0.9 kg/m3; mass density (298.15 K, 110000 kPa): 862.4 ± 1 kg/m3; mass density (298.15 K, 120000 kPa): 866.2 ± 1 kg/m3; mass density (298.15 K, 130000 kPa): 870.1 ± 1 kg/m3; mass density (298.15 K, 140000 kPa): 873.7 ± 1 kg/m3; mass density (313.15 K, 100 kPa): 789.5 ± 0.7 kg/m3; mass density (313.15 K, 1000 kPa): 790.3 ± 0.7 kg/m3; mass density (313.15 K, 5000 kPa): 793.6 ± 0.7 kg/m3; mass density (313.15 K, 10000 kPa): 797.7 ± 0.7 kg/m3; mass density (313.15 K, 15000 kPa): 801.6 ± 0.7 kg/m3; mass density (313.15 K, 20000 kPa): 805.2 ± 0.8 kg/m3; mass density (313.15 K, 25000 kPa): 808.5 ± 0.8 kg/m3; mass density (313.15 K, 30000 kPa): 812.1 ± 0.8 kg/m3; mass density (313.15 K, 35000 kPa): 815.3 ± 0.8 kg/m3; mass density (313.15 K, 40000 kPa): 818.4 ± 0.8 kg/m3; mass density (313.15 K, 45000 kPa): 821.3 ± 0.8 kg/m3; mass density (313.15 K, 50000 kPa): 824.2 ± 0.8 kg/m3; mass density (313.15 K, 55000 kPa): 827 ± 0.8 kg/m3; mass density (313.15 K, 60000 kPa): 829.8 ± 0.9 kg/m3; mass density (313.15 K, 65000 kPa): 832.5 ± 0.9 kg/m3; mass density (313.15 K, 70000 kPa): 835 ± 0.9 kg/m3; mass density (313.15 K, 80000 kPa): 839.9 ± 0.9 kg/m3; mass density (313.15 K, 90000 kPa): 844.7 ± 0.9 kg/m3; mass density (313.15 K, 100000 kPa): 849.1 ± 1 kg/m3; mass density (313.15 K, 110000 kPa): 853.4 ± 1 kg/m3; mass density (313.15 K, 120000 kPa): 857.5 ± 1 kg/m3; mass density (313.15 K, 130000 kPa): 861.5 ± 1 kg/m3; mass density (313.15 K, 140000 kPa): 865.4 ± 1 kg/m3; mass density (333.15 K, 100 kPa): 770.8 ± 0.7 kg/m3; mass density (333.15 K, 1000 kPa): 771.7 ± 0.7 kg/m3; mass density (333.15 K, 5000 kPa): 775.6 ± 0.7 kg/m3; mass density (333.15 K, 10000 kPa): 780.2 ± 0.7 kg/m3; mass density (333.15 K, 15000 kPa): 784.6 ± 0.7 kg/m3; mass density (333.15 K, 20000 kPa): 788.8 ± 0.8 kg/m3; mass density (333.15 K, 25000 kPa): 792.6 ± 0.8 kg/m3; mass density (333.15 K, 30000 kPa): 796.3 ± 0.8 kg/m3; mass density (333.15 K, 35000 kPa): 800 ± 0.8 kg/m3; mass density (333.15 K, 40000 kPa): 803.4 ± 0.8 kg/m3; mass density (333.15 K, 45000 kPa): 806.6 ± 0.8 kg/m3; mass density (333.15 K, 50000 kPa): 809.7 ± 0.8 kg/m3; mass density (333.15 K, 55000 kPa): 812.8 ± 0.9 kg/m3; mass density (333.15 K, 60000 kPa): 815.8 ± 0.9 kg/m3; mass density (333.15 K, 65000 kPa): 818.7 ± 0.9 kg/m3; mass density (333.15 K, 70000 kPa): 821.4 ± 0.9 kg/m3; mass density (333.15 K, 80000 kPa): 826.7 ± 0.9 kg/m3; mass density (333.15 K, 90000 kPa): 831.9 ± 1 kg/m3; mass density (333.15 K, 100000 kPa): 836.7 ± 1 kg/m3; mass density (333.15 K, 110000 kPa): 841.2 ± 1 kg/m3; mass density (333.15 K, 120000 kPa): 845.5 ± 1 kg/m3; mass density (333.15 K, 130000 kPa): 849.8 ± 1.1 kg/m3; mass density (333.15 K, 140000 kPa): 853.8 ± 1.1 kg/m3; mass density (353.21 K, 100 kPa): 750.3 ± 0.7 kg/m3; mass density (353.21 K, 1000 kPa): 751.4 ± 0.7 kg/m3; mass density (353.21 K, 5000 kPa): 756 ± 0.7 kg/m3; mass density (353.21 K, 10000 kPa): 761.3 ± 0.7 kg/m3; mass density (353.21 K, 15000 kPa): 766.4 ± 0.8 kg/m3; mass density (353.21 K, 20000 kPa): 771 ± 0.8 kg/m3; mass density (353.21 K, 25000 kPa): 775.4 ± 0.8 kg/m3; mass density (353.21 K, 30000 kPa): 779.5 ± 0.8 kg/m3; mass density (353.21 K, 35000 kPa): 783.5 ± 0.8 kg/m3; mass density (353.21 K, 40000 kPa): 787.2 ± 0.8 kg/m3; mass density (353.21 K, 45000 kPa): 790.8 ± 0.8 kg/m3; mass density (353.21 K, 50000 kPa): 794.5 ± 0.9 kg/m3; mass density (353.21 K, 55000 kPa): 797.7 ± 0.9 kg/m3; mass density (353.21 K, 60000 kPa): 801 ± 0.9 kg/m3; mass density (353.21 K, 65000 kPa): 804.1 ± 0.9 kg/m3; mass density (353.21 K, 70000 kPa): 807.2 ± 0.9 kg/m3; mass density (353.21 K, 80000 kPa): 812.9 ± 1 kg/m3; mass density (353.21 K, 90000 kPa): 818.3 ± 1 kg/m3; mass density (353.21 K, 100000 kPa): 823.5 ± 1 kg/m3; mass density (353.21 K, 110000 kPa): 828.5 ± 1.1 kg/m3; mass density (353.21 K, 120000 kPa): 833.1 ± 1.1 kg/m3; mass density (353.21 K, 130000 kPa): 837.6 ± 1.1 kg/m3; mass density (353.21 K, 140000 kPa): 842 ± 1.1 kg/m3; mass density (373.24 K, 1000 kPa): 729.1 ± 0.7 kg/m3; mass density (373.24 K, 5000 kPa): 734.5 ± 0.7 kg/m3; mass density (373.24 K, 10000 kPa): 740.8 ± 0.7 kg/m3; mass density (373.24 K, 15000 kPa): 746.6 ± 0.8 kg/m3; mass density (373.24 K, 20000 kPa): 751.9 ± 0.8 kg/m3; mass density (373.24 K, 25000 kPa): 757 ± 0.8 kg/m3; mass density (373.24 K, 30000 kPa): 761.6 ± 0.8 kg/m3; mass density (373.24 K, 35000 kPa): 766.1 ± 0.8 kg/m3; mass density (373.24 K, 40000 kPa): 770.4 ± 0.8 kg/m3; mass density (373.24 K, 45000 kPa): 774.4 ± 0.9 kg/m3; mass density (373.24 K, 50000 kPa): 778.1 ± 0.9 kg/m3; mass density (373.24 K, 55000 kPa): 781.9 ± 0.9 kg/m3; mass density (373.24 K, 60000 kPa): 785.4 ± 0.9 kg/m3; mass density (373.24 K, 65000 kPa): 788.8 ± 0.9 kg/m3; mass density (373.24 K, 70000 kPa): 792.1 ± 1 kg/m3; mass density (373.24 K, 80000 kPa): 798.5 ± 1 kg/m3; mass density (373.24 K, 90000 kPa): 804.3 ± 1 kg/m3; mass density (373.24 K, 100000 kPa): 809.8 ± 1.1 kg/m3; mass density (373.24 K, 110000 kPa): 815.1 ± 1.1 kg/m3; mass density (373.24 K, 120000 kPa): 820.1 ± 1.1 kg/m3; mass density (373.24 K, 130000 kPa): 824.9 ± 1.2 kg/m3; mass density (373.24 K, 140000 kPa): 829.5 ± 1.2 kg/m3; mass density (393.27 K, 1000 kPa): 704.8 ± 0.7 kg/m3; mass density (393.27 K, 5000 kPa): 711.4 ± 0.7 kg/m3; mass density (393.27 K, 10000 kPa): 718.8 ± 0.7 kg/m3; mass density (393.27 K, 15000 kPa): 725.6 ± 0.8 kg/m3; mass density (393.27 K, 20000 kPa): 731.7 ± 0.8 kg/m3; mass density (393.27 K, 25000 kPa): 737.4 ± 0.8 kg/m3; mass density (393.27 K, 30000 kPa): 742.7 ± 0.8 kg/m3; mass density (393.27 K, 35000 kPa): 747.8 ± 0.8 kg/m3; mass density (393.27 K, 40000 kPa): 752.5 ± 0.9 kg/m3; mass density (393.27 K, 45000 kPa): 757 ± 0.9 kg/m3; mass density (393.27 K, 50000 kPa): 761.2 ± 0.9 kg/m3; mass density (393.27 K, 55000 kPa): 765.4 ± 0.9 kg/m3; mass density (393.27 K, 60000 kPa): 769.2 ± 0.9 kg/m3; mass density (393.27 K, 65000 kPa): 773 ± 1 kg/m3; mass density (393.27 K, 70000 kPa): 776.6 ± 1 kg/m3; mass density (393.27 K, 80000 kPa): 783.4 ± 1 kg/m3; mass density (393.27 K, 90000 kPa): 789.8 ± 1.1 kg/m3; mass density (393.27 K, 100000 kPa): 795.8 ± 1.1 kg/m3; mass density (393.27 K, 110000 kPa): 801.5 ± 1.1 kg/m3; mass density (393.27 K, 120000 kPa): 806.8 ± 1.2 kg/m3; mass density (393.27 K, 130000 kPa): 811.9 ± 1.2 kg/m3; mass density (393.27 K, 140000 kPa): 816.8 ± 1.2 kg/m3
